Test results published in US20240041042A1, “1-(PYRIDYL)-5-AZINYLPYRAZOLE DERIVATIVES, AND THEIR USE FOR CONTROL OF UNDESIRED PLANT GROWTH” (Bayer Aktiengesellschaft, priority 2020, published 2024).
Like-named read-outs stand apart in the source and are kept apart here.

Experiments:
Type in all cases: in vivo
[1] = system: Echinochloa crus-galli (ECHCG); assay: Post-emergence herbicidal action against ECHCG
Method in brief: (§1)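 Greenhouse plants sprayed at the one-leaf stage, 2–3 weeks after sowing, with WP or EC formulations plus 0.5% additive at 600 l/ha water. Activity rated visually after about 3 weeks versus untreated controls (100% = dead, 0% = like control), at 320 g/ha or lower.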

[2] = system: Matricaria inodora (MATIN); assay: Post-emergence herbicidal action against MATIN
Method in brief: as §1

Oryza sativa (ORYSA) = details: crop plant compatibility
Method in brief: (§2)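 Greenhouse crops in sandy loam sprayed post-emergence at the one-leaf stage, 2–3 weeks after sowing, with WP or EC formulations in water plus 0.5% additive at 600 l/ha. Damage rated visually about 3 weeks later versus untreated controls (0% = like control, 100% = dead); suffixes a–c denote different doses.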

[3] = system: Pharbitis purpurea (PHBPU); assay: Post-emergence herbicidal action against PHBPU
Method in brief: as §1

Viola tricolor (VIOTR) = assay: Post-emergence herbicidal action against VIOTR
Method in brief: as §1

[4] = system: Digitaria sanguinalis (DIGSA); assay: Post-emergence herbicidal action against DIGSA; details: visual rating about 3 weeks after treatment
Method: Seeds of monocotyledonous and dicotyledonous weeds and crop plants are placed in sandy loam in plastic or organic planting pots, covered with soil and cultivated in a greenhouse under controlled growth conditions. 2 to 3 weeks after sowing, the test plants are treated at the one-leaf stage. The compounds of the invention, formulated in the form of wettable powders (WP) or as emulsion concentrates (EC), are then sprayed onto the green parts of the plants as aqueous suspension or emulsion with addition of 0.5% additive at a water application rate of 600 l/ha (converted). After the test plants have been kept in the greenhouse under optimum growth conditions for about 3 weeks, the activity of the preparations is rated visually in comparison to untreated controls. For example, 100% activity=the plants have died, 0% activity=like control plants.
Tables B1 to B13 below show the effects of selected compounds of the general formula (I) according to Table 1 on various harmful plants and at an application rate corresponding to 320 g/ha or lower, which were obtained by the experimental procedure mentioned above. The appendices “a”, “b” and “c” give differentiation by dosage used with otherwise the same harmful plants tested.

[5] = system: Verconica persica (VERPE); assay: Post-emergence herbicidal action against VERPE
Method in brief: as §1

[6] = system: Alopecurus myosuroides (ALOMY); assay: Post-emergence herbicidal action against ALOMY; details: visual rating about 3 weeks after treatment vs untreated controls (100% = plants have died, 0% = like control plants)
Method in brief: as §1

[7] = system: Polygonum convolvulus (POLCO); assay: Post-emergence herbicidal action against POLCO
Method in brief: as §1

Avena fatua (AVEFA) = assay: Post-emergence herbicidal action against AVEFA; details: visual rating about 3 weeks after treatment
Method in brief: as §1

Lolium rigidum (LOLRI) = assay: Post-emergence herbicidal action against LOLRI
Method in brief: as §1

[8] = system: Amaranthus retroflexus (AMARE); assay: Post-emergence herbicidal action against AMARE
Method in brief: as §1

Setaria viridis (SETVI) = assay: Post-emergence herbicidal action against SETVI
Method in brief: as §1

Zea mays (ZEAMX) = details: for Post-emergence action against ZEAMX in % (crop plant compatibility): 20 g/ha, effect in comparison to untreated controls; for Post-emergence action against ZEAMX in %: crop plant compatibility, 80 g/ha, effect vs untreated controls
Method in brief: as §2

[9] = system: Abutilon theophrasti (ABUTH); assay: Post-emergence herbicidal action against ABUTH; details: visual rating about 3 weeks after treatment vs untreated controls (100% = plants have died, 0% = like control plants)
Method in brief: as §1

[10] = 20 g/ha, effect vs untreated controls
[11] = 80 g/ha, visual rating about 3 weeks after treatment vs untreated controls (100% = plants have died, 0% = like control plants)
[12] = 320 g/ha, visual rating about 3 weeks after treatment

Row | Compound | Post-emergence action against ECHCG in % ([1]; dosage 80 g/ha) | Post-emergence action against ECHCG in % ([1]; dosage 320 g/ha) | Post-emergence action against ORYSA in % (Oryza sativa (ORYSA); [10]) | Post-emergence action against PHBPU in % ([3]; dosage 80 g/ha) | Post-emergence action against PHBPU in % ([3]; dosage 320 g/ha) | Post-emergence action against VIOTR in % (Viola tricolor (VIOTR); 80 g/ha) | Post-emergence action against VIOTR in % (Viola tricolor (VIOTR); 320 g/ha) | Post-emergence action against DIGSA in % ([4]; 80 g/ha) | Post-emergence action against DIGSA in % ([4]; 320 g/ha) | Post-emergence action against VERPE in % ([5]; 320 g/ha, VERPE) | Post-emergence action against VERPE in % ([5]; dosage 80 g/ha) | Post-emergence action against ALOMY in % ([6]; 320 g/ha) | Post-emergence action against POLCO in % ([7]; dosage 80 g/ha) | Post-emergence action against POLCO in % ([7]; dosage 320 g/ha) | Post-emergence action against AVEFA in % (Avena fatua (AVEFA); 320 g/ha) | Post-emergence action against LOLRI in % (Lolium rigidum (LOLRI); dosage 320 g/ha) | Post-emergence action against AMARE in % [8, 11] | Post-emergence action against AMARE in % [8, 12] | Post-emergence action against SETVI in % (Setaria viridis (SETVI); dosage 80 g/ha) | Post-emergence action against SETVI in % (Setaria viridis (SETVI); dosage 320 g/ha) | further results
1 | CCOC(=O)COc1nn(-c2ncccc2F)c(-c2cncc(F)c2)c1C(F)(F)F [Example I-141] | 80% | 80% | 10% | 80% | 90% | 80% | 80% | 90% | 90% | 90% | 90% | 90% | 80% | 80% | 80% | 90% | 80% | 90% | 90% | 90% | Post-emergence action against MATIN in % ([2]; dosage 80 g/ha): 80%; Post-emergence action against MATIN in % ([2]; dosage 320 g/ha): 90%
2 | COC(=O)C(C)COC(=O)[C@@H](C)Oc1nn(-c2ccccn2)c(-c2ccc(F)nc2)c1Cl (stereo partly drawn) [Example I-267] |  | 90% |  |  | 90% | 90% | 90% |  | 90% | 90% | 90% | 90% | 80% | 80% | 90% | 100% | 80% | 80% | 90% | 90% | Post-emergence action against ZEAMX in % (crop plant compatibility) (Zea mays (ZEAMX)): 0%; Post-emergence action against ZEAMX in % (Zea mays (ZEAMX)): 20%; Post-emergence action against AVEFA in % (Avena fatua (AVEFA); 80 g/ha): 90%; Post-emergence action against LOLRI in % (Lolium rigidum (LOLRI); dosage 80 g/ha): 90%; Post-emergence action against ABUTH in % ([9]; 80 g/ha): 80%; Post-emergence action against ABUTH in % ([9]; 320 g/ha): 90%
3 | CC(C)OC(=O)COc1nn(-c2ncccc2F)c(-c2ccc(F)nc2)c1C1CC1 [Example I-328] | 90% | 90% | 0% | 90% | 90% | 80% | 90% | 90% | 90% | 90% | 90% | 90% | 90% | 90% | 90% | 90% | 90% | 90% | 90% | 90% | Post-emergence action against ZEAMX in % (crop plant compatibility) (Zea mays (ZEAMX)): 0%; Post-emergence action against ZEAMX in % (Zea mays (ZEAMX)): 0%; Post-emergence action against ALOMY in % ([6]; 80 g/ha): 90%; Post-emergence action against AVEFA in % (Avena fatua (AVEFA); 80 g/ha): 90%; Post-emergence action against LOLRI in % (Lolium rigidum (LOLRI); dosage 80 g/ha): 90%; Post-emergence action against ABUTH in % ([9]; 80 g/ha): 80%; Post-emergence action against ABUTH in % ([9]; 320 g/ha): 80%
4 | O=C(COc1nn(-c2ncccc2F)c(-c2ccc(F)nc2)c1C1CC1)OCC1COC1 [Example I-264] | 90% | 90% | 0% | 80% | 80% | 90% | 90% | 80% | 80% | 90% | 80% | 90% |  |  | 90% | 90% |  |  | 90% | 90% | Post-emergence action against MATIN in % ([2]; dosage 320 g/ha): 80%; Post-emergence action against ORYSA in % (Oryza sativa (ORYSA); 80 g/ha, effect in comparison to untreated controls): 10%; Post-emergence action against ZEAMX in % (crop plant compatibility) (Zea mays (ZEAMX)): 10%; Post-emergence action against ZEAMX in % (Zea mays (ZEAMX)): 20%; Post-emergence action against AVEFA in % (Avena fatua (AVEFA); 80 g/ha): 80%; Post-emergence action against LOLRI in % (Lolium rigidum (LOLRI); dosage 80 g/ha): 90%
